Data from patent US10881679B2, “Application of a phillyrin/phillygeninin composition in preparing a medicine or health care product for alleviating or/and treating viral diseases, and medicine or health care product for treating viral diseases” (priority 2014, dated 2021).
Marks after values point to notes of the source that are not given here.

What was measured:
parainfluenza virus [1] = assay: Impact on virus-induced cytopathic effect in Vero cells (MTT): parainfluenza virus; format: cell-based; conditions: parainfluenza virus 100TCID50, Vero, 72 h; drug g/L as Table 1-2
enterovirus EV71 = assay: Impact on virus-induced cytopathic effect in Vero cells (MTT): EV71; format: cell-based; conditions: EV71 100TCID50, Vero, 72 h; drug g/L as Table 1-2
[2] = tested on: Herpes zoster simplex viruses type I (HSV-I); assay: Impact on virus-induced cytopathic effect in Vero cells (MTT): HSV-I; format: cell-based; conditions: HSV-I 100TCID50, Vero, 72 h; drug g/L as Table 1-2
influenza virus [3] = format: in vivo, Kunming mice; conditions: 19.5 mg/kg/d i.g. 5 days
[4] = tested on: respiratory syncytial virus (RSV); assay: Impact on virus-induced cytopathic effect in Vero cells (MTT): RSV; format: cell-based; conditions: RSV 100TCID50, Vero, 72 h; drug g/L as Table 1-2
[5] = tested on: Coxsackie virus B3 (CVB3); assay: Impact on virus-induced cytopathic effect in Vero cells (MTT): CVB3; format: cell-based; conditions: CVB3 100TCID50, Vero, 72 h; drug g/L as Table 1-2
adenovirus (ADV) = assay: Impact on virus-induced cytopathic effect in Vero cells (MTT): ADV; format: cell-based; conditions: ADV 100TCID50, Vero, 72 h; drug g/L as Table 1-2
parainfluenza virus [6] = format: in vivo, Kunming mice; conditions: 19.5 mg/kg/d i.g. 5 days
parainfluenza virus [7] = format: in vivo, Kunming mice; conditions: 19.5 mg/kg/d i.g. 5 days; remark: listed apart in the source
influenza virus [8] = format: in vivo, Kunming mice; conditions: 19.5 mg/kg/d i.g. 5 days; remark: listed apart in the source
Vero cells = assay: Cytotoxicity test (MTT) on Vero cells; format: cell-based, African green monkey; conditions: 72 h
Procedure: Cytotoxicity test: the drugs were diluted according to the concentrations shown in table 1-1 for determination of cytotoxicity. […] In addition, 6 wells were set up as normal control group (without drugs) while another 6 pores as blank control group (medium only). Cells were grown in a 37° C. incubator under 5% CO2. […] After 72 h, 20 μL MTT solution (5 mg·mL^−1) was added into each well to continue incubation for 4 h. The culture medium in each well was sucked and discarded, 100 μL DMSO was added to each well. Then the culture was shaken for 5 min, measured OD value at 492 nm to calculate the cell survival ratio. The cell survival ratio was analyzed using a Probit regression model in SPSS 18.0 statistical software, and the maximal nontoxic concentration (TC0) and median toxic concentration (TC50) of drugs against Vero cells were calculated.

influenza virus [9] = assay: Impact on virus-induced cytopathic effect in Vero cells (MTT): influenza virus; format: cell-based; conditions: influenza virus 100TCID50, Vero, 72 h; drug g/L (Table 1-2): phillyrin 0.01, Phillygeninin 0.02, compositions A, B 0.01, Ribavirin 0.70, oseltamivir phosphate 0.30
[10] = tested on: Coxsackievirus A16 (CoxA16); assay: Impact on virus-induced cytopathic effect in Vero cells (MTT): CoxA16; format: cell-based; conditions: CoxA16 100TCID50, Vero, 72 h; drug g/L as Table 1-2

## CCOC(=O)C1=C[C@@H](OC(CC)CC)[C@H](NC(C)=O)[C@@H](N)C1 [oseltamivir phosphate]
Parainfluenza virus [1]
  antiviral effective rate (ER %): 94.52** %
Enterovirus EV71
  antiviral effective rate (ER %): 51.86%
[2]
  antiviral effective rate (ER %): 66.56** %
Influenza virus [3]
  Hemagglutination titer (InX): 20.50 ± 1.123
  Inhibition rate (%) of hemagglutination titer: 36.73%
[4]
  antiviral effective rate (ER %): 37.60%
[5]
  antiviral effective rate (ER %): 1.64%
Adenovirus (ADV)
  antiviral effective rate (ER %): 10.31%
Parainfluenza virus [6]
  Lung index: 1.243 ± 0.054
  Lung index inhibition rate: 21.85
Parainfluenza virus [7]
  Hemagglutination titer (InX): 22.05
  Inhibition rate (%) of hemagglutination titer: 33.40%
Influenza virus [8]
  Lung index: 1.178 ± 0.066
  Lung index inhibition rate: 19.84
Vero cells
  half toxic concentration (TC50): 832 µg/mL
  maximal non-toxic concentration (TC0): 0.28 g/L
Influenza virus [9]
  antiviral effective rate (ER %): 81.76** %
[10]
  antiviral effective rate (ER %): 2.95%
